6 molecules from patent US20060166310A1, “Serotonin receptor” (Inpharmatica Ltd., priority 2002, published 2006) can be followed below.

Each structure is given as a SMILES string.

One data set deals with T1, INPIONCH1 (Homo sapiens, UniProt Q401N2).
T1 construct: V5 (C); His (C); expressed in transfected cells; host or cells: HEK293
T1 sequence (Q401N2 2-412): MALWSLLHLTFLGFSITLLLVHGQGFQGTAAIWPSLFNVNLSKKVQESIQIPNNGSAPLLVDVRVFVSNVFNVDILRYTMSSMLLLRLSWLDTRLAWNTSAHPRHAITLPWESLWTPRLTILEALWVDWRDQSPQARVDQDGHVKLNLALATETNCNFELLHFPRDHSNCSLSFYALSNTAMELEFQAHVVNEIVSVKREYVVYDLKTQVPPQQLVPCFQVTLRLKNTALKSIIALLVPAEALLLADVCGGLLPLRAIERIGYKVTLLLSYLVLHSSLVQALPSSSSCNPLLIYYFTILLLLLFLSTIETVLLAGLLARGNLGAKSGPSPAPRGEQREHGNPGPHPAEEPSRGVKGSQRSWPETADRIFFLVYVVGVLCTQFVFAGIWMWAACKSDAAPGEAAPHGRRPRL
In words: Whole cell patch-clamp of HEK293 cells transfected with INPIONCH1. Conditions: for activation of current on application: cells transfected with INPIONCH1. It is filed as cell-based. An excerpt: Cells were clamped at −80 mV or −60 mV. Drugs were applied by pressure ejection from modified micropipettes.
(In general: The patch-clamp technique gives a direct electrical read-out from membranes.)

A further data set has as its system HEK293 cells. Conditions: 1 mM.

As for `O=S(=O)([O-])[O-].[Zn+2]` [zinc sulphate], on INPIONCH1 (zinc sulphate application), the zinc activated current result is on record as “no consistent specific zinc activated current was observed”. Also, the “effect on amplitude of the current in response to 5-HT” value on INPIONCH1 (zinc sulphate applied to the cells) is “appeared to reduce the amplitude”. Also, the “toxicity to the cells” value in the data set on HEK293 cells was “appeared to be toxic”.
As to `CN1CCCC1c1cccnc1` (stereo not shown) [nicotine], the “activation of current on application” value at INPIONCH1 is “appeared not to activate current”. Besides, the “effect on outward current recorded at positive potentials” value on INPIONCH1 (in some cells) is “appeared to block outward current”.
With `COc1cc2c3cc1Oc1cc(ccc1O)C[C@@H]1c4c(cc(OC)c(O)c4Oc4ccc(cc4)C[C@@H]3N(C)CC2)CC[N+]1(C)C` [Tubocurarine], on INPIONCH1, the “effect on the 5-HT induced channel” value is recorded as “no effect” and the “effect on the leak channel” value is given as “no effect”.
Turning to `NC[C@H](O)c1ccc(O)c(O)c1` [noradrenaline], on INPIONCH1, the “activation of current on application” value is reported as “appeared not to activate current”.
Consider `NCCc1c[nH]c2ccc(O)cc12` [5-HT, serotonin], for which the “current on application of 5-HT” value on INPIONCH1 (10 μM, HEK293 cells expressing INPIONCH1) was “inward current”. Also, the “response following a second application (desensitisation)” value on INPIONCH1 (second application of 5-HT, stated for 'the channels') is “minimal or absent”. In addition, the “reversal potential of 5-HT-induced current” value at INPIONCH1 (voltage ramps -90 to +90 mV before and after 5-HT application) is “about 0 mV”. The “induction of currents before and after application of zinc sulphate” value at INPIONCH1 (zinc sulphate 1 mM) is given as “able to induce currents”.
`CC(=O)OCC[N+](C)(C)C` [acteylcholine]: at INPIONCH1, the “activation of current on application” value is on record as “appeared not to activate current”.
